# Reference: patent publication US20030110524A1, “TRANSGENIC ORGANISMS AND THEIR USES” (priority 1997, published 2003)
# How the values were obtained:
# [1] = tested on: lung fibroblast cells derived from control rats; assay: Survival of lung fibroblast cells from control rats with drugs; assay type: cell-based, rat; conditions: control rat cells, drugs added at day 2, geneticin 400 μg/ml, 5FC 100 μg/ml
# Method: (§1) Fibroblast cultures derived from lung of adult CD2/neo^r, TG/TK/neo^r and control animals were produced and expanded by routine methods (Freshney (1987), Alan R. Liss, New York). Twenty-four hours after plating, geneticin (400 μg/ml) was added to cultures originating from both types of transgenic rats and from control rats, and replaced every three days with fresh medium. When required, cells were subcultured (1:3) to prevent them becoming confluent, again by basic culture methods (Freshney 1987). Cell counts were made manually in 20 fields chosen randomly and the values at each time point, after allowing for changes due to subculturing, were aggregated. […] In the absence of added geneticin, no change in cell survival from either of the transgenic animals was observed.
# (§2) The effects of 5-fluorocytosine (5FC) were also determined. 5-fluorocytosine at a concentration of 100 μg/ml had no effect on fibroblast cells derived from control animals or from the TG/TK/neo^r transgenic. In the cells derived from the CD2/neo^r transgenic animal, however, 94% of the originally-plated cells died, or were non-functional (as determined by their failure to exclude trypan blue) after 10 days culture in the presence of 5FC (Table 2).
# (§3) Drugs were added at day 2 in culture. Values are related to the number of cells found in control cultures without drug additions at various times after plating, and allowing for dilutions resulting from passaging. Figures are the means of three separate determinations, the standard errors all being less than 15% of the mean.
# [2] = tested on: thyroid cells derived from CD2/neo^r transgenic rats; assay: Survival of thyroid cells from CD2/neo^r transgenic rats with drugs; assay type: cell-based; conditions: CD2/neo^r rat cells, drugs added at day 2, geneticin 400 μg/ml, ACG 10 μg/ml
# Method: (§4) Thyroid cultures derived from the thyroid gland of adult CD2/neo^r, TG/TK/neo^r and control animals were produced by routine methods (Freshney, 1987). Twenty-four hours after plating, geneticin (400 μg/ml) was added to cultures originating from both types of transgenic and the control rats, and replaced every three days with fresh medium. When required, cells were subcultured (1:2) to prevent their becoming confluent. Cell counts were made manually in 20 fields chosen randomly, and the values at each time point, after allowing for changes due to subculturing, were aggregated (Table 3). […] Ten days later, cell counts were again made of 20 fields chosen at random. […] The results were as expected in view of the specific and non-specific expression of the positive and negative selection markers, in the TG/TK/neo^r and CD2/neo^r transgenics, respectively.
# (§5) Drugs were added at day 2 in culture. Values are related to the number of cells found in control cultures without drug additions at various times after plating, and allow for dilutions resulting from passaging. Figures are the means of three separate determinations, the standard errors all being less than 15% of the mean.
# [3] = tested on: lung fibroblast cells derived from TG/TK/neo^r transgenic rats; assay: Survival of lung fibroblast cells from TG/TK/neo^r transgenic rats with drugs; assay type: cell-based, rat; conditions: TG/TK/neo^r rat cells, drugs added at day 2, geneticin 400 μg/ml, 5FC 100 μg/ml
# Method: as §1, §2, §3
# [4] = tested on: thyroid cells derived from control rats; assay: Survival of thyroid cells from control rats with drugs; assay type: cell-based, rat; conditions: control rat cells, drugs added at day 2, geneticin 400 μg/ml, ACG 10 μg/ml
# Method: as §4, §5
# [5] = tested on: thyroid cells derived from TG/TK/neo^r transgenic rats; assay: Survival of thyroid cells from TG/TK/neo^r transgenic rats with drugs; assay type: cell-based, rat; conditions: TG/TK/neo^r rat cells, drugs added at day 2, geneticin 400 μg/ml, ACG 10 μg/ml
# Method: as §4, §5
# [6] = tested on: spinal cord cells derived from the CD2-neo^r transgenic rat; assay: Survival and development of spinal cord cells from the CD2-neo^r transgenic rat under geneticin; assay type: cell-based; conditions: geneticin 1 mg/ml; 60 days in vitro
# Method: Cultures of spinal cord cells derived from the CD2-neo^r transgenic rat were grown in small flasks, using previously established methods (Foster et al., (1990) Eur. J. Neurosci. 3, 32-39). At the beginning of the experimental period, in the region of 100 yeast spores, and unknown amounts of other common laboratory microbiological contaminants, were introduced into the flask. At the same time geneticin (1 mg/ml) was added. Thereafter, all manipulations of the medium and additions to the flask were conducted outside the sterile environment of the laminar flow cabinet.
# [7] = tested on: lung fibroblast cells derived from CD2/neo^r transgenic rats; assay: Survival of lung fibroblast cells from CD2/neo^r transgenic rats with drugs; assay type: cell-based, rat; conditions: CD2/neo^r rat cells, drugs added at day 2, geneticin 400 μg/ml, 5FC 100 μg/ml
# Method: as §1, §2, §3
structure (smiles),measurement,setting,value
CN[C@@H]1[C@@H](O)[C@@H](O[C@@H]2[C@@H](O)[C@H](O[C@H]3O[C@H]([C@@H](C)O)[C@@H](O)[C@H](O)[C@H]3N)[C@@H](N)C[C@H]2N)OC[C@]1(C)O [geneticin],Survival of lung fibroblast cells (related to number of cells in control cultures without drug),[1]; day 1 in culture,99
same,Survival of lung fibroblast cells (related to number of cells in control cultures without drug),[1]; day 3 in culture,101
same,Survival of lung fibroblast cells (related to number of cells in control cultures without drug),[1]; day 5 in culture,85
same,Survival of lung fibroblast cells (related to number of cells in control cultures without drug),[1]; day 7 in culture,23
same,Survival of lung fibroblast cells (related to number of cells in control cultures without drug),[1]; day 9 in culture,5
same,Survival of lung fibroblast cells (related to number of cells in control cultures without drug),[1]; day 11 in culture,2
same,Survival of thyroid cells (related to number of cells in control cultures without drug),[2]; day 1 in culture,91
same,Survival of thyroid cells (related to number of cells in control cultures without drug),[2]; day 3 in culture,94
same,Survival of thyroid cells (related to number of cells in control cultures without drug),[2]; day 5 in culture,91
same,Survival of thyroid cells (related to number of cells in control cultures without drug),[2]; day 7 in culture,93
same,Survival of thyroid cells (related to number of cells in control cultures without drug),[2]; day 9 in culture,107
same,Survival of thyroid cells (related to number of cells in control cultures without drug),[2]; day 11 in culture,105
same,Survival of lung fibroblast cells (related to number of cells in control cultures without drug),[3]; day 1 in culture,97
same,Survival of lung fibroblast cells (related to number of cells in control cultures without drug),[3]; day 3 in culture,105
same,Survival of lung fibroblast cells (related to number of cells in control cultures without drug),[3]; day 5 in culture,108
same,Survival of lung fibroblast cells (related to number of cells in control cultures without drug),[3]; day 7 in culture,101
same,Survival of lung fibroblast cells (related to number of cells in control cultures without drug),[3]; day 9 in culture,105
same,Survival of lung fibroblast cells (related to number of cells in control cultures without drug),[3]; day 11 in culture,111
same,Survival of thyroid cells (related to number of cells in control cultures without drug),[4]; day 1 in culture,95
same,Survival of thyroid cells (related to number of cells in control cultures without drug),[4]; day 3 in culture,91
same,Survival of thyroid cells (related to number of cells in control cultures without drug),[4]; day 5 in culture,85
same,Survival of thyroid cells (related to number of cells in control cultures without drug),[4]; day 7 in culture,56
same,Survival of thyroid cells (related to number of cells in control cultures without drug),[4]; day 9 in culture,9
same,Survival of thyroid cells (related to number of cells in control cultures without drug),[4]; day 11 in culture,4
same,Survival of thyroid cells (related to number of cells in control cultures without drug),[5]; day 1 in culture,104
same,Survival of thyroid cells (related to number of cells in control cultures without drug),[5]; day 3 in culture,105
same,Survival of thyroid cells (related to number of cells in control cultures without drug),[5]; day 5 in culture,98
same,Survival of thyroid cells (related to number of cells in control cultures without drug),[5]; day 7 in culture,88
same,Survival of thyroid cells (related to number of cells in control cultures without drug),[5]; day 9 in culture,93
same,Survival of thyroid cells (related to number of cells in control cultures without drug),[5]; day 11 in culture,98
same,Survival and development of the neural cells compared to uninfected control cells grown without geneticin,[6],appeared unimpaired
same,Survival of lung fibroblast cells (related to number of cells in control cultures without drug),[7]; day 1 in culture,91
same,Survival of lung fibroblast cells (related to number of cells in control cultures without drug),[7]; day 3 in culture,94
same,Survival of lung fibroblast cells (related to number of cells in control cultures without drug),[7]; day 5 in culture,91
same,Survival of lung fibroblast cells (related to number of cells in control cultures without drug),[7]; day 7 in culture,93
same,Survival of lung fibroblast cells (related to number of cells in control cultures without drug),[7]; day 9 in culture,107
same,Survival of lung fibroblast cells (related to number of cells in control cultures without drug),[7]; day 11 in culture,105
